Experimental data published in US20100056519A1, “COMPOSITION AND METHOD FOR REDUCING PLATELET ACTIVATION AND FOR THE TREATMENT OF THROMBOTIC EVENTS” (priority 2008, published 2010).

How the values were obtained:
Format in all cases: cell-based, human
platelets = assay: Platelet aggregation induced by 10 μM TRAP; settings: for Platelet Aggregation (%), TRAP 10 μM: Mean ± SD
Method: (§1) The methodology employed was conventional aggregation induced by 5 μM ADP, 1 μg/ml collagen, 10 μM TRAP, whole blood aggregation with 1 μg/ml collagen, Ultegra, and PFA-100 Analyzers, expression of 14 intact, and TRAP-stimulated major receptors by whole blood flow cytometry were utilized to assess platelet activity after preincubation with escalating concentrations of E5555 (20 ng/ml, 50 ng/ml, and 100 ng/ml). The experiments were performed in healthy volunteers, CAD patients treated with ASA, and CAD patients treated with ASA and clopidogrel combination (n=10, for each group).
(§2) An Informed Consent was obtained from all volunteers. Drug users were excluded from data analysis. The study was approved by Quorum Institutional Review Board. All subjects underwent blood sampling after at least 30 minutes of rest and two or more hours of fasting. Blood (28 ml) was drawn between 8 and 10 a.m. in order to avoid any diurnal influence and sampled from an antecubital vein using a 21-gauge butterfly needle containing 3.2% sodium citrate (1:9 volume) after having discarded the first 1.5 ml of free running blood. Four Vacutainer tubes (7.0 ml) were collected for a total of 28 ml of whole blood-citrate mixture from each study participant. Chronologically, blood samples were delivered to the core laboratory facility within 45 minutes after drawing. Then all tubes of blood-citrate mixture were pooled. One portion of pooled blood (5 ml) was kept as an internal control and pretreated with the vehicle. The remaining blood (23 ml) was used for the in vitro exposure to E5555 at concentrations of 20 ng/ml, 50 ng/ml, and 100 ng/ml. […] The platelet aggregation studies, Rapid Analyzers measures, and flow cytometry preparations were initiated within no more than 110 minutes following the blood draw, incubation with the drug, and preparation of the samples.
Platelet counts were determined in each PRP sample with a Coulter Counter ZM (Coulter Co., Hialeah, Fla.). Platelet numbers were adjusted to 3.50×10^8/ml for aggregation using homologous platelet-poor plasma. Platelet aggregation was stimulated with 5 μM ADP, 1 μg/ml collagen, or 10 μM TRAP. All agonists were obtained from Chronolog Corporation (Havertown, Pa.) and Sigma (St. Louis, Miss.). Platelet aggregation experiments were performed using a Chrono-Log Lumi-Aggregometer (model 560-Ca). Aggregation curves were recorded for 4 minutes and analyzed according to internationally established standards using Aggrolink® software. Platelet aggregability was expressed as the percentage of light transmittance change from baseline using platelet-poor plasma as a reference.

CD-40L (CD154) = assay: Unstimulated whole blood flow cytometry, CD40-ligand; settings: for CD-40L (CD154), Mean Fluorescence Intensity: unstimulated, Mean ± SD
Method: as §1, §2
(§3) Formation of platelet-leukocyte aggregates was assessed by dual labeling with pan-platelet marker (CD151), and then with CD14, the macrophage receptor for endotoxin lipopolysaccharides (PharMingen, and Coulter, San Diego, Calif., USA). The tubes were then covered with aluminum foil and incubated at 37° C. for 40 minutes with gentle rotation. After incubation, samples were immediately analyzed on a Becton Dickinson FACScan flow cytometer. The instrument was set up to measure forward light scatter, and FITC fluorescence. All parameters were collected using four-decade logarithmic amplification. The data was retrieved in list mode files and then analyzed. P selectin was expressed as percent positive cells. Other antigens were expressed as log mean fluorescence intensity.

GPIb (CD42b) = assay: TRAP-stimulated whole blood flow cytometry, GPIb; settings: Mean ± SD
Method: as §1, §2, §3
(§4) For flow cytometry (TRAP-stimulated) all of the above flow cytometry experiments were identically repeated utilizing prestimulation with 10 μmol/L TRAP for 5 minutes at 37° C. To determine statistics, a Paired Sign Test was used to define significance of differences between vehicle and E5555-treated groups. The Mann-Whitney U test was used to analyze nonparametric data. Normally distributed data were expressed as mean±standard error (m±SE), and skewed data as median (range). All P-values were two sided. All analysis was performed using the SPSS v9.0 program (SPSS Inc., Chicago, Ill.).

VTNR (CD51/61) = assay: TRAP-stimulated whole blood flow cytometry, vitronectin receptor; settings: Mean ± SD
Method: as §1, §2, §3, §4

LAMP-3 (CD63) = assay: TRAP-stimulated whole blood flow cytometry, LAMP-3; settings: Mean ± SD
Method: as §1, §2, §3, §4

[1] = system: Thrombospondin-Receptor (CD36); assay: TRAP-stimulated whole blood flow cytometry, thrombospondin receptor; settings: Mean ± SD
Method: as §1, §2, §3, §4

WEDE15 = assay: TRAP-stimulated whole blood flow cytometry, WEDE15; settings: Mean ± SD
Method: as §1, §2, §3, §4

[2] = E5555 20 ng/ml, Patients (ASA + C)
[3] = E5555 50 ng/ml, Patients (ASA + C)
[4] = E5555 100 ng/ml, Patients (ASA + C)
[5] = E5555 100 ng/ml, Patients (ASA)

Br.CCOc1cc2c(c(F)c1OCC)C(=N)N(CC(=O)c1cc(N3CCOCC3)c(OC)c(C(C)(C)C)c1)C2 [E5555, 1-(3-tert-butyl-4-methoxy-5-morpholinophenyl)-2-(5,6-diethoxy-7-fluoro-1-imino-1,3-dihydro-2H-isoindol-2-yl)ethanone hydrobromide]
TRAP-induced aggregation, effect in words (platelets; ASA-treated patients with coronary artery disease): fully inhibiting | TRAP-induced aggregation, effect in words (platelets; CAD patients treated with ASA+clopidogrel): profound blockade | Platelet Aggregation (%), TRAP 10 μM (platelets; E5555 20 ng/ml, CAD patients treated with ASA + clopidogrel): 2.2 ± 1.6 % | Platelet Aggregation (%), TRAP 10 μM (platelets; E5555 20 ng/ml, CAD patients treated with ASA): 2.7 ± 1.4 % | Platelet Aggregation (%), TRAP 10 μM (platelets; E5555 20 ng/ml, healthy volunteers): 2.1 ± 1.2 % | Platelet Aggregation (%), TRAP 10 μM (platelets; E5555 50 ng/ml, CAD patients treated with ASA + clopidogrel): 1.8 ± 1.0 % | Platelet Aggregation (%), TRAP 10 μM (platelets; E5555 50 ng/ml, CAD patients treated with ASA): 3.3 ± 1.8 % | Platelet Aggregation (%), TRAP 10 μM (platelets; E5555 50 ng/ml, healthy volunteers): 1.3 ± 1.2 % | Platelet Aggregation (%), TRAP 10 μM (platelets; E5555 100 ng/ml, CAD patients treated with ASA + clopidogrel): 2.7 ± 2.2 % | Platelet Aggregation (%), TRAP 10 μM (platelets; E5555 100 ng/ml, CAD patients treated with ASA): 2.9 ± 2.0 % | Platelet Aggregation (%), TRAP 10 μM (platelets; E5555 100 ng/ml, healthy volunteers): 2.7 ± 1.8 % | TRAP-induced aggregation, effect in words (platelets; healthy volunteers, E5555 20, 50, and 100 ng/ml): inhibited completely | TRAP-induced aggregation, effect in words (platelets; overall summary of the study): inhibited almost completely | CD40-ligand, effect in words (CD-40L (CD154); overall summary, stimulation not stated): not affected | CD-40L (CD154), Mean Fluorescence Intensity (CD-40L (CD154); [2]): 5.1 ± 1.0 MFI | CD-40L (CD154), Mean Fluorescence Intensity (CD-40L (CD154); E5555 20 ng/ml, Patients (ASA)): 5.0 ± 1.0 MFI | CD-40L (CD154), Mean Fluorescence Intensity (CD-40L (CD154); E5555 20 ng/ml, Volunteers): 5.4 ± 0.8 MFI | CD-40L (CD154), Mean Fluorescence Intensity (CD-40L (CD154); [3]): 5.2 ± 0.7 MFI | CD-40L (CD154), Mean Fluorescence Intensity (CD-40L (CD154); E5555 50 ng/ml, Patients (ASA)): 5.2 ± 0.8 MFI | CD-40L (CD154), Mean Fluorescence Intensity (CD-40L (CD154); E5555 50 ng/ml, Volunteers): 5.3 ± 0.5 MFI | CD-40L (CD154), Mean Fluorescence Intensity (CD-40L (CD154); [4]): 5.3 ± 1.3 MFI | CD-40L (CD154), Mean Fluorescence Intensity (CD-40L (CD154); [5]): 5.1 ± 1.0 MFI | CD-40L (CD154), Mean Fluorescence Intensity (CD-40L (CD154); E5555 100 ng/ml, Volunteers): 5.0 ± 0.9 MFI | GPIb (CD42b), Mean Fluorescence Intensity (GPIb (CD42b); [2]): 105 ± 14 MFI | GPIb (CD42b), Mean Fluorescence Intensity (GPIb (CD42b); E5555 20 ng/ml, Patients (ASA)): 102 ± 9 MFI | GPIb (CD42b), Mean Fluorescence Intensity (GPIb (CD42b); E5555 20 ng/ml, Volunteers): 134 ± 17 MFI | GPIb (CD42b), Mean Fluorescence Intensity (GPIb (CD42b); [3]): 102 ± 19 MFI | GPIb (CD42b), Mean Fluorescence Intensity (GPIb (CD42b); E5555 50 ng/ml, Patients (ASA)): 104 ± 17 MFI | GPIb (CD42b), Mean Fluorescence Intensity (GPIb (CD42b); E5555 50 ng/ml, Volunteers): 125 ± 24 MFI | GPIb (CD42b), Mean Fluorescence Intensity (GPIb (CD42b); [4]): 137 ± 18 MFI | GPIb (CD42b), Mean Fluorescence Intensity (GPIb (CD42b); [5]): 100 ± 14 MFI | GPIb (CD42b), Mean Fluorescence Intensity (GPIb (CD42b); E5555 100 ng/ml, Volunteers): 150 ± 26 MFI | VTNR (CD51/61), Mean Fluorescence Intensity (VTNR (CD51/61); [2]): 10.2 ± 1.5 MFI | VTNR (CD51/61), Mean Fluorescence Intensity (VTNR (CD51/61); E5555 20 ng/ml, Patients (ASA)): 10.8 ± 2.1 MFI | VTNR (CD51/61), Mean Fluorescence Intensity (VTNR (CD51/61); E5555 20 ng/ml, Volunteers): 10.4 ± 1.3 MFI | VTNR (CD51/61), Mean Fluorescence Intensity (VTNR (CD51/61); [3]): 10.9 ± 1.6 MFI | VTNR (CD51/61), Mean Fluorescence Intensity (VTNR (CD51/61); E5555 50 ng/ml, Patients (ASA)): 10.5 ± 1.3 MFI | VTNR (CD51/61), Mean Fluorescence Intensity (VTNR (CD51/61); E5555 50 ng/ml, Volunteers): 10.1 ± 1.7 MFI | VTNR (CD51/61), Mean Fluorescence Intensity (VTNR (CD51/61); [4]): 11.0 ± 2.0 MFI | VTNR (CD51/61), Mean Fluorescence Intensity (VTNR (CD51/61); [5]): 9.9 ± 1.3 MFI | VTNR (CD51/61), Mean Fluorescence Intensity (VTNR (CD51/61); E5555 100 ng/ml, Volunteers): 10.7 ± 1.5 MFI | LAMP-3 (CD63), Mean Fluorescence Intensity (LAMP-3 (CD63); [2]): 20 ± 5 MFI | LAMP-3 (CD63), Mean Fluorescence Intensity (LAMP-3 (CD63); E5555 20 ng/ml, Patients (ASA)): 24 ± 8 MFI | LAMP-3 (CD63), Mean Fluorescence Intensity (LAMP-3 (CD63); E5555 20 ng/ml, Volunteers): 26 ± 7 MFI | LAMP-3 (CD63), Mean Fluorescence Intensity (LAMP-3 (CD63); [3]): 5 ± 3 MFI | LAMP-3 (CD63), Mean Fluorescence Intensity (LAMP-3 (CD63); E5555 50 ng/ml, Patients (ASA)): 9 ± 3 MFI | LAMP-3 (CD63), Mean Fluorescence Intensity (LAMP-3 (CD63); E5555 50 ng/ml, Volunteers): 8 ± 2 MFI | LAMP-3 (CD63), Mean Fluorescence Intensity (LAMP-3 (CD63); [4]): 4 ± 1 MFI | LAMP-3 (CD63), Mean Fluorescence Intensity (LAMP-3 (CD63); [5]): 5 ± 1 MFI | LAMP-3 (CD63), Mean Fluorescence Intensity (LAMP-3 (CD63); E5555 100 ng/ml, Volunteers): 7 ± 2 MFI | Thrombospondin-Receptor (CD36), Mean Fluorescence Intensity [1, 2]: 6 ± 1 MFI | Thrombospondin-Receptor (CD36), Mean Fluorescence Intensity ([1]; E5555 20 ng/ml, Patients (ASA)): 6 ± 2 MFI | Thrombospondin-Receptor (CD36), Mean Fluorescence Intensity ([1]; E5555 20 ng/ml, Volunteers): 9 ± 1 MFI | Thrombospondin-Receptor (CD36), Mean Fluorescence Intensity [1, 3]: 5 ± 1 MFI | Thrombospondin-Receptor (CD36), Mean Fluorescence Intensity ([1]; E5555 50 ng/ml, Patients (ASA)): 7 ± 1 MFI | Thrombospondin-Receptor (CD36), Mean Fluorescence Intensity ([1]; E5555 50 ng/ml, Volunteers): 9 ± 2 MFI | Thrombospondin-Receptor (CD36), Mean Fluorescence Intensity [1, 4]: 6 ± 2 MFI | Thrombospondin-Receptor (CD36), Mean Fluorescence Intensity [1, 5]: 7 ± 2 MFI | Thrombospondin-Receptor (CD36), Mean Fluorescence Intensity ([1]; E5555 100 ng/ml, Volunteers): 9 ± 1 MFI | WEDE15, Mean Fluorescence Intensity (WEDE15; [2]): 33 ± 5 MFI | WEDE15, Mean Fluorescence Intensity (WEDE15; E5555 20 ng/ml, Patients (ASA)): 38 ± 6 MFI | WEDE15, Mean Fluorescence Intensity (WEDE15; E5555 20 ng/ml, Volunteers): 40 ± 7 MFI | WEDE15, Mean Fluorescence Intensity (WEDE15; [3]): 34 ± 6 MFI | WEDE15, Mean Fluorescence Intensity (WEDE15; E5555 50 ng/ml, Patients (ASA)): 39 ± 6 MFI | WEDE15, Mean Fluorescence Intensity (WEDE15; E5555 50 ng/ml, Volunteers): 40 ± 5 MFI | WEDE15, Mean Fluorescence Intensity (WEDE15; [4]): 33 ± 6 MFI | WEDE15, Mean Fluorescence Intensity (WEDE15; [5]): 40 ± 8 MFI | WEDE15, Mean Fluorescence Intensity (WEDE15; E5555 100 ng/ml, Volunteers): 40 ± 8 MFI
